{
  "source": "patent US10076511B2",
  "about": "“Bisamide derivative of dicarboxylic acid as an agent for stimulating tissue regeneration and recovery of diminished tissue function” (TREAMID GmbH, priority 2015, dated 2018)",
  "key": {"Wistar rats": {"test_system": "Wistar rats", "experiment": "Pair-test of sexual behavior, rats of late reproductive (14 months) and presenile (19 months) age", "format": "in vivo, rat", "conditions": "for EN (the number of ejaculations) / LFM (latency until the first mount) / MN (the number of mounts): 14-month rats", "procedure": "Erectile dysfunction was simulated by using animals of late and senile reproductive age (14-19 months). Suppression of sexual motivation was simulated by using animals of late reproductive age (14 months).\nExperiments on studying the effect of Treamid on copulatory activity were carried out on 76 Wistar rats (14 months and 19 months of age). Treamid was administered intragastrically for 14 days at a dose of 5 mg/kg. Reference drug Sildenafil (100 mg, PFIZER PGM, France) was also administered intragastrically, which corresponded to clinical use, at a dose of 3 mg/kg twice a week. The sexual activity was estimated by the pair-test of sexual behavior. For this purpose female rats in the estrus stage caused by a preliminary 4-fold injection of the Synestrel were involved in the experiment. The effectiveness of Treamid was estimated by the following indices: latency until the first mating attempt (LFM), the number of mating attempts (MN), and the number of ejaculations (EN). The obtained data were compared with those of the same animals before the administration of Treamid (the first test) and with the data in the control group (the second test)."}, "male Wistar rats": {"test_system": "male Wistar rats", "experiment": "Chronic abacterial prostatitis (CAP) model, prostate weight and morphometry", "format": "in vivo, rat", "procedure": "This is manifested in a decrease in the severity of the morphological changes typical in these diseases. CAP was simulated by suturing the ventral lobe of the gland with a silk thread, and BPH was simulated by the administration of Sulpiride. The reference drug was Prostamol Uno.\nTreamid were administered intragastrically to animals with CAP at a dose of 0.5 mg/kg for 15 days.\nExperiments were performed on 40 male Wistar rats (3 months of age). To simulate chronic abacterial prostatitis, the ventral lobe of the prostate was sutured with a silk thread (under anesthesia). The model of benign prostatic hyperplasia (BPH) was simulated in rats by inducing hyperprolactinaemia, for which male rats were intraperitoneally injected with Sulpiride at a dose of 40 mg/kg every day for 2 months (Eglonil, Sanofi Winthrop Industry, France).\nOne month after the surgery, the animals of the experimental group were intraperitoneally administered Treamid at a dose of 0.5 mg/kg once daily for 15 days. At the end of the administration course, the animals were weighed and euthanized in a CO2 chamber. The ventral lobe of the gland was then dissected, weighed, and its volume was measured, followed by the calculation of a weight coefficient, and subjected to morphological analysis. For this purpose, the prostate was fixed in formalin and poured into paraffin. Paraffin sections of a thickness of 5 μm were stained with hematoxylin-eosin according to Van Gieson on the connective tissue, to calculate the relative area of the epithelium. Further, the severity of atrophic processes and developing sclerosis was qualitatively assessed. The assessment was carried out on standard area of the gland section by using a computer graphic analysis (micrographs of 10 serial visual fields performed by an AxioCam Erc5s camera mounted on an AxioLab A1 microscope (×10 lens, ×10 eyepiece), with an image transfer software of “AxioVision LE”, Carl Zeiss). The area occupied by secretory sites, collagen fibers of connective tissue septa was determined. The effectiveness of the drug was estimated by the following criteria: lower intensity of morphological symptoms of chronic abacterial prostatitis (atrophy and sclerosis): the area occupied by secretory sections, collagen fibers of connective tissue septa."}, "male rats": {"test_system": "male rats", "format": "in vivo, rat", "conditions": "Day 65", "procedure": "The latter was simulated by a single injection of cytostatic drug Paclitaxel (Mitotax, Dr. Reddy's, India) to male rats (3 months of age). The choice of the drug was due to the fact that it is one of the medications that damage the precursors of spermatogenesis—stem cells.\nPaclitaxel was administered to the animals of the control and test groups once intravenously at the maximum tolerated dose of 7.6 mg/kg. Treamid was administered to the animals of the experimental groups intragastrically at a dose of 5 mg/kg in the form of a suspension in 2% starch mucus for 15 days a month after the administration of Paclitaxel. The control animals received an equivalent volume of the solvent (2% starch mucus), instead of the test compound.\nThe colony-stimulating activity of the cells of the microenvironment of spermatogenic tissue (production of humoral regulators of spermatogenesis by Sertoli cells) was determined as follows. The above-described procedure was used to prepare a testis homogenate from which an adherent fraction of cells was isolated. The adherent cells were cultured for 24 hours in complete culture medium at 37° C., 5% CO2 and 100% air humidity. A day later, the supernatant was collected, which was stored at a temperature of […]. The level of humoral factors of spermatogenesis in the supernatant was tested by the test system of CFU-Sp of the testes of intact rats. […]"}, "male C57BL/6 mice": {"test_system": "male C57BL/6 mice", "experiment": "Bleomycin-induced pulmonary fibrosis model", "format": "in vivo, mouse", "conditions": "Day 21; 10 mg/kg", "procedure": "Toxic damage of the lung alveolar epithelium causing pulmonary fibrosis was simulated by intra-tracheal administration of the cytostatic bleomycin once in a dose of 80 μg/mouse in 30 μl of physiological saline. Anesthesia during the operation was achieved by using inhalation ether. The surgical field was disinfected with a 70% ethanol solution and hair on this field was removed. The skin, subcutaneous tissue and own fascia of the neck were dissected along the middle line of the neck. The muscles were moved apart on the ventral side of the trachea by the method of blunt separation of tissues. Injection of bleomycin was made on inhalation along the airflow by a Hamilton syringe. After suturing the wound, the surgical field was treated with an antiseptic. The administration of bleomycin was taken as Day 0 of the experiment.\nThe effectiveness of Treamid and the reproduction of pulmonary fibrosis were estimated by the number and intensity of the synthesis of connective tissue in the lungs, as well as by the histoarchitectonics of the lungs.\nThus, the staining of histological preparations of the lungs of C57BL/6 mice with picrofuxin according to Van Gieson and subsequent visualization of the connective tissue made it possible to register a significant proliferation of the connective tissue, mainly around the vessels and bronchioles (FIG. 5, Table 36). In addition, lung homogenates of the animals of the intact control and pathological control were investigated by enzyme immunoassay."}, "[1]": {"conditions": "First test, before administration of drugs"}, "[2]": {"conditions": "Second test, after 14-day administration course, Treamid 5 mg/kg, Sildenafil 3 mg/kg"}, "[3]": {"conditions": "19-month rats, First test (before administration of drugs)"}, "[4]": {"conditions": "19-month rats, Second test (after 14-day administration course), Treamid 5.0 mg/kg"}, "[5]": {"conditions": "Treamid 0.5 mg/kg 15 days, Prostamol Uno 50 mg/kg"}, "[6]": {"conditions": "anterior part of the prostate gland, Treamid 0.5 mg/kg, Prostamol Uno 50 mg/kg"}},
  "data": [
    {"smiles": "O=C(CCCC(=O)NCCc1ncc[nH]1)NCCc1ncc[nH]1", "note": "[Treamid]", "values": [
      {"measurement": "EN (the number of ejaculations)", "setting": "Wistar rats; [1]", "value": "0.00 ± 0.00"},
      {"measurement": "LFM (latency until the first mount)", "setting": "Wistar rats; [1]", "value": "559.08 ± 93.55"},
      {"measurement": "MN (the number of mounts)", "setting": "Wistar rats; [1]", "value": "1.42 ± 0.50"},
      {"measurement": "EN (the number of ejaculations)", "setting": "Wistar rats; [2]", "value": "0.60 ± 0.22⋄*"},
      {"measurement": "MN (the number of mounts)", "setting": "Wistar rats; [2]", "value": "6.90 ± 1.88⋄"},
      {"measurement": "LFM (latency until the first mount)", "setting": "Wistar rats; Second test, after 14-day administration course, Treamid 5 mg/kg, Sildenafil 3 mg/kg intragastrically", "value": "364.80 ± 127.66"},
      {"measurement": "EN (abs.)", "setting": "Wistar rats; [3]", "value": "0.00 ± 0.00", "unit": "abs."},
      {"measurement": "LFM", "setting": "Wistar rats; [3]", "value": "310.27 ± 94.59", "unit": "s"},
      {"measurement": "MN (abs.)", "setting": "Wistar rats; [3]", "value": "4.27 ± 1.04", "unit": "abs."},
      {"measurement": "EN", "setting": "Wistar rats; [4]", "value": "0.20 ± 0.13⋄*"},
      {"measurement": "LFM", "setting": "Wistar rats; [4]", "value": "297.20 ± 117.04", "unit": "s"},
      {"measurement": "MN (abs.)", "setting": "Wistar rats; [4]", "value": "7.90 ± 1.45⋄ abs."},
      {"measurement": "increase in the area of the acinar epithelium", "setting": "male Wistar rats; Treamid 0.5 mg/kg", "value": 22, "unit": "%"},
      {"measurement": "Volume of the anterior lobe of the prostate gland, cm^3", "setting": "male Wistar rats; [5]", "value": "0.90 ± 0.20", "unit": "cm^3"},
      {"measurement": "Weight coefficient of the anterior lobe of the prostate gland", "setting": "male Wistar rats; [5]", "value": "1.97 ± 0.47", "unit": "mg/g"},
      {"measurement": "Weight of the anterior lobe of the prostate gland", "setting": "male Wistar rats; [5]", "value": "976.00 ± 226.62", "unit": "mg"},
      {"measurement": "Area of collagen fibers", "setting": "male Wistar rats; [6]", "value": "2.64 ± 0.12", "unit": "%"},
      {"measurement": "Area of the acinar epithelium", "setting": "male Wistar rats; [6]", "value": "26.33 ± 2.63", "unit": "%"},
      {"measurement": "increase of the secretory activity of the microenvironment cells compared to the control", "setting": "male rats", "value": 80, "unit": "%"},
      {"measurement": "Hydroxyproline (μg/ml) in the lungs", "setting": "male C57BL/6 mice", "value": "27.97 ± 2.2", "unit": "µg/mL"},
      {"measurement": "The content of connective tissue (%) in the lungs", "setting": "male C57BL/6 mice", "value": "1.17 ± 0.20• %"},
      {"measurement": "Total collagen (mg/ml) in the lungs", "setting": "male C57BL/6 mice", "value": "23.4 ± 1.7", "unit": "mg/mL"},
      {"measurement": "Type I collagen (ng/ml) in the lungs", "setting": "male C57BL/6 mice", "value": "201.6 ± 18", "unit": "ng/mL"}
    ]}
  ]
}
